The results in this text go back to patent US9315502B2, “Imidazopyridine derivatives” (Hoffmann-La Roche Inc., priority 2012, dated 2016).

Each structure is given as a SMILES string.

In series [1] the test system is human embryonic stem cell derived neural stem cells (NSCs). In words: Neural Stem Cell Proliferation Assay (neurogenesis assay, ATP levels by CellTiterGlo). The class given is cell-based. The conditions noted are these: 96 h, compound concentration at which 150% activity of control (100%) is reached, NSC proliferation, 4 days incubation. How it is done:
Neural Stem Cell Proliferation Assay
Neurogenic properties of small molecules are determined based on the proliferation of human embryonic stem cell derived neural stem cells (NSCs) which were derived via a dual smad inhibition as previously described (Chambers, S. M., et al., Highly efficient neural conversion of human ES and iPS cells by dual inhibition of SMAD signaling, Nature biotechnology, 2009. 27(3): p. 275-80.)
Compounds respond is measured by the increase in cells based on ATP levels
(Promega:CellTiterGlo®) after an incubation period of 4 days.
NSCs are thawed and expanded over 3 passages. On the 14th day, NSCs are seeded in Polyornithin/Laminin coated 384 well plates at a cell density of 21′000 cells/cm^2 in a media volume of 38 μl.
4 hours after cell seeding, compound solutions are added at a volume of 2 μl. Stock solutions of the compounds (water, 5% DMSO) are diluted to obtain a dose response (11 points, dilution factor is 2), ranging from 8 μM to 8 nM. Controls are run to consistently determine the neurogenic properties of the cells:
Negative (neutral) control is cell culture Media (final DMSO concentration: 0.25%). Positive controls are: • 1. cell culture Media+100 ng/ml FGF2 (final DMSO concentration: 0.1%) • 2. cell culture Media+20 ng/ml EGF (final DMSO concentration: 0.1%) • 3. cell culture Media+100 ng/ml Wnt3a (final DMSO concentration: 0.1%)
After 4 days incubation at 37° C., 5% CO2, the amount of ATP per well is quantified. The ATP concentration is proportional to the cell number. ATP is quantified by using the Promega CellTiterGlo® kit. The CellTiterGlo® reagents contain a cell lysis buffer, a thermo stable luciferase (UltraGlo™ recombinant luciferase), magnesium and luciferin. Luciferin reacts with ATP producing oxyluciferin, AMP and light. The luminescence signal is proportional to the ATP content.
The value of negative (neutral) control is determined for each assay plate by taking the average of 16 negative control wells. The neurogenic compound response is calculated for each compound as (compound/Negative Control)* 100.
The values of EC150 from the dose response curve are determined for each test compound. The EC150 is the compound concentration at which 150% activity of control (100%) is reached.
(Cellular ATP, detected with luciferase, serves as a proxy for viable cell number.)

With `Cc1ccc(-n2nccc2-c2ccc3ncc(-c4ccc(F)cc4)n3c2)cc1` [Example 5, 3-(4-Fluoro-phenyl)-6-(2-p-tolyl-2H-pyrazol-3-yl)-imidazo[1,2-a]pyridine], the melting point – broadly, the temperature, or range, at which the solid turns liquid – turned out to be 141 °C. In series [1], this compound registered an EC (150% of control) of 0.008 µM.

With `Clc1ccc(-c2cnc3ccc(-c4ccnn4-c4ccc(Cl)cc4)cn23)cc1` [Example 2, 3-(4-Chloro-phenyl)-6-[2-(4-chloro-phenyl)-2H-pyrazol-3-yl]-imidazo[1,2-a]pyridine], the melting point is 172.5 °C. Further, the EC (150% of control) in series [1] came out at 0.1 µM.

As for `Fc1ccc(-c2cnc3ccc(-c4ccnn4-c4ccc(F)cc4)cn23)cc1` [Example 1, 3-(4-Fluoro-phenyl)-6-[2-(4-fluoro-phenyl)-2H-pyrazol-3-yl]-imidazo[1,2-a]pyridine], the melting point was found to be 172 °C. Moreover, the EC (150% of control) in series [1] turned out to be 0.019 µM.

For the compound `N#Cc1ccc(-c2cnc3ccc(-c4ccnn4-c4ccc(Cl)cc4)cn23)cc1` [Example 20, 4-{6-[2-(4-Chloro-phenyl)-2H-pyrazol-3-yl]-imidazo[1,2-a]pyridin-3-yl}-benzonitrile], the melting point was 208 °C. In series [1], this compound registered an EC (150% of control) of 0.04 µM.

Regarding `Fc1ccc(-c2cnc3ccc(-c4ccnn4-c4ccc(Cl)cc4)cn23)cc1` [Example 3, 6-[2-(4-Chloro-phenyl)-2H-pyrazol-3-yl]-3-(4-fluoro-phenyl)-imidazo[1,2-a]pyridine], the melting point is 147 °C. In series [1], this compound displayed an EC (150% of control) of 0.096 µM.

With `Fc1ccc(-c2cnc3ccc(-c4ccnn4-c4ccc(Cl)cc4)cn23)c(F)c1` [Example 15, 6-[2-(4-Chloro-phenyl)-2H-pyrazol-3-yl]-3-(2,4-difluoro-phenyl)-imidazo[1,2-a]pyridine], the melting point worked out at 152 °C. Besides, in series [1], the EC (150% of control) amounted to 0.029 µM.

For `c1ccc(-c2cnc3ccc(-c4ccnn4-c4ccccc4)cn23)cc1` [Example 8, 3-Phenyl-6-(2-phenyl-2H-pyrazol-3-yl)-imidazo[1,2-a]pyridine], the melting point came out at 139 °C. The compound further yielded an EC (150% of control) in series [1] of 0.019 µM.

The compound `Fc1ccc(-c2cnc3ccc(-c4cncn4-c4ccc(F)cc4)cn23)cc1` [Example 16, 3-(4-Fluoro-phenyl)-6-[3-(4-fluoro-phenyl)-3H-imidazol-4-yl]-imidazol[1,2-a]pyridine] came in with a melting point of 206 °C. In series [1], the EC (150% of control) was 0.053 µM.

Take `CS(=O)(=O)c1ccc(-c2cnc3ccc(-c4ccnn4-c4ccc(F)cc4)cn23)cc1` [Example 22, 6-[2-(4-Fluoro-phenyl)-2H-pyrazol-3-yl]-3-(4-methanesulfonyl-phenyl)-imidazo[1,2-a]pyridine]: the melting point was 226 °C. The compound further showed an EC (150% of control) in series [1] of 0.24 µM.

`Clc1ccc(-n2nccc2-c2ccc3ncc(-c4ccncc4)n3c2)cc1` [Example 7, 6-[2-(4-Chloro-phenyl)-2H-pyrazol-3-yl]-3-pyridin-4-yl-imidazo[1,2-a]pyridine] returned a melting point of 186 °C. For the same compound, the EC (150% of control) in series [1] came out at 0.022 µM.

In the case of `COc1ccc(-c2cnc3ccc(-c4ccnn4-c4ccc(F)cc4)cn23)cc1` [Example 13, 6-[2-(4-Fluoro-phenyl)-2H-pyrazol-3-yl]-3-(4-methoxy-phenyl)-imidazo [1,2-a]pyridine], the melting point worked out at 162 °C. In series [1], this compound registered an EC (150% of control) of 0.024 µM.

Compound `Cc1ccc(-n2nccc2-c2ccc3ncc(-c4ccccc4)n3c2)cc1` [Example 10, 3-Phenyl-6-(2-p-tolyl-2H-pyrazol-3-yl)-imidazo[1,2-a]pyridine] showed a melting point of 107 °C. Further, the EC (150% of control) in series [1] came to 0.009 µM.

With `Fc1cc(Cl)ccc1-c1cnc2ccc(-c3ccnn3-c3ccc(Cl)cc3)cn12` [Example 11, 3-(4-Chloro-2-fluoro-phenyl)-6-[2-(4-chloro-phenyl)-2H-pyrazol-3-yl]-imidazo[1,2-a]pyridine], the melting point worked out at 148 °C. For the same compound, the EC (150% of control) in series [1] is 0.089 µM.

Regarding `Fc1ccc(-n2nccc2-c2ccc3ncc(-c4ccncc4)n3c2)cc1` [Example 6, 6-[2-(4-Fluoro-phenyl)-2H-pyrazol-3-yl]-3-pyridin-4-yl-imidazo [1,2-a]pyridine], the melting point came to 201 °C. For the same compound, in series [1], the EC (150% of control) was found to be 0.026 µM.

In the case of `N#Cc1ccc(-c2cnc3ccc(-c4ccnn4-c4ccc(F)cc4)cn23)cc1` [Example 19, 4-{6-[2-(4-Fluoro-phenyl)-2H-pyrazol-3-yl]-imidazo [1,2-a]pyridin-3-yl}-benzonitrile], the melting point worked out at 215 °C. The EC (150% of control) in series [1] is 0.03 µM.

With `Fc1ccc(-c2cnc3ccc(-c4ccnn4-c4ccc(C(F)(F)F)cc4)cn23)cc1` [Example 23, 3-(4-Fluoro-phenyl)-6-[2-(4-trifluoromethyl-phenyl)-2H-pyrazol-3-yl]-imidazo[1,2-a]pyridine], the melting point is 147 °C. The compound further showed an EC (150% of control) in series [1] of 0.79 µM.

Regarding `FC(F)(F)c1ccc(-c2cnc3ccc(-c4ccnn4-c4ccc(Cl)cc4)cn23)cc1` [Example 17, 6-[2-(4-Chloro-phenyl)-2H-pyrazol-3-yl]-3-(4-trifluoromethyl-phenyl)-imidazo[1,2-a]pyridine], the melting point was 167 °C. The compound also displayed an EC (150% of control) in series [1] of 0.38 µM.

As for `Fc1ccc(-n2nccc2-c2ccc3ncc(-c4ccc(Cl)cc4F)n3c2)cc1` [Example 9, 3-(4-Chloro-2-fluoro-phenyl)-6-[2-(4-fluoro-phenyl)-2H-pyrazol-3-yl]-imidazo[1,2-a]pyridine], the melting point amounted to 187 °C. The same compound registered an EC (150% of control) in series [1] of 0.055 µM.

For the compound `Fc1ccc(-n2nccc2-c2ccc3ncc(-c4ccc(Cl)cc4)n3c2)cc1` [Example 4, 3-(4-Chloro-phenyl)-6-[2-(4-fluoro-phenyl)-2H-pyrazol-3-yl]-imidazo [1,2-a]pyridine], the melting point worked out at 171 °C. In series [1], this compound had an EC (150% of control) of 0.092 µM.

Consider `Fc1ccc(-n2nccc2-c2ccc3ncc(-c4ccc(F)cc4F)n3c2)cc1` [Example 14, 3-(2,4-Difluoro-phenyl)-6-[2-(4-fluoro-phenyl)-2H-pyrazol-3-yl]-imidazo[1,2-a]pyridine], for which the melting point stood at 168 °C. In addition, in series [1], the EC (150% of control) was found to be 0.053 µM.

The compound `N#Cc1ccc(-c2cnc3ccc(-c4ccnn4-c4ccc(C(F)(F)F)cc4)cn23)cc1` [Example 24, 4-{6-[2-(4-Trifluoromethyl-phenyl)-2H-pyrazol-3-yl]-imidazo [1,2-a]pyridin-3-yl}-benzonitrile] came in with a melting point of 201 °C. Further, the EC (150% of control) in series [1] was found to be 2.6 µM.

For `Fc1ccc(-n2nccc2-c2ccc3ncc(-c4ccc(C(F)(F)F)cc4)n3c2)cc1` [Example 18, 6-[2-(4-Fluoro-phenyl)-2H-pyrazol-3-yl]-3-(4-trifluoromethyl-phenyl)-imidazo[1,2-a]pyridine], the melting point was 172 °C. The compound further showed an EC (150% of control) in series [1] of 0.18 µM.

Regarding `COc1ccc(-c2cnc3ccc(-c4ccnn4-c4ccc(Cl)cc4)cn23)cc1` [Example 12, 6-[2-(4-Chloro-phenyl)-2H-pyrazol-3-yl]-3-(4-methoxy-phenyl)-imidazo [1,2-a]pyridine], the melting point amounted to 142 °C. In series [1], the EC (150% of control) is 0.045 µM.

Compound `CS(=O)(=O)c1ccc(-c2cnc3ccc(-c4ccnn4-c4ccc(Cl)cc4)cn23)cc1` [Example 21, 6-[2-(4-Chloro-phenyl)-2H-pyrazol-3-yl]-3-(4-methanesulfonyl-phenyl)-imidazo[1,2-a]pyridine] displayed a melting point of 259 °C. In series [1], this compound had an EC (150% of control) of 0.25 µM.
